Test results as given in patent publication US20170349532A1, “CATIONIC LIPID” (Kyowa Hakko Kirin Co., Ltd., priority 2011, published 2017).

Assay: Average particle diameter of preparation (Zetasizer Nano ZS)
Assay type: physicochemical
Settings: for Particle diameter of Preparetion: average particle diameter of cationic lipid/nucleic acid complex, Example 118 preparation: compound/PEG-DMPE Na/DSPC/cholesterol with apo-b siRNA; for average particle diameter of the complex between the cationic lipis and the nucleic acid in the preparation: Comparative Examples 1 to 8, prepared as Example 118 with apo-b siRNA
Source text: Preparations were produced using the compounds obtained in Examples 1 to 117, as follows.
APO-B siRNA was used as the nucleic acid. APO-B siRNA suppresses expression of an apolipoprotein-B (hereinafter, “apo-b”) gene and has a sense strand with the base sequence 5′-GmUCAmUCACACmUGAAmUACCAAmU-3′ (the sugars attached to the bases appended with m are 2′-O-methyl-substituted riboses), and an antisense strand with the base sequence 5′-[…]-3′ (the 5′-end is phosphorylated). The sense strand and the antisense strand were obtained from Nippon EGT, GeneDesign, Inc., Invitrogen or Hokkaido System Science Co., Ltd., and annealed to prepare the nucleic acid (hereinafter, “apo-b siRNA”).
A solution comprising the constituent components was prepared by dissolving each of the weighed samples in 90 vol % ethanol in 8.947/1.059/5.708/13.697 mmol/L [compounds 1 to 117 obtained in Examples 1 to 117/sodium 1,2-dimyristoyl-sn-glycero-3-phosphoethanolamine-N-(methoxy(polyethylene glycol)-2000) (PEG-DMPE Na,N-(carbonylmethoxypolyethylene glycol 2000)-1,2-dimyristoyl-sn-glycero-3-phosphoethanolamine sodium salt, NOF Corporation)/distearoylphosphatidyl choline (DSPC, 1,2-distearoyl-sn-glycero-3-phosphocholine, NOF Corporation)/cholesterol (Avanti Polar Lipids)]. Separately, apo-b siRNA/distilled water (24 mg/mL) was diluted with a Tris-EDTA buffer (200 mM Tris-HCl, 20 mM EDTA, Invitrogen) and a 20 mM citric acid buffer (pH 5.0) to prepare a 1.5 mg/mL apo-b siRNA aqueous solution (2 mM Tris-EDTA/20 mM citric acid buffer, pH 5.0).
The resulting lipid solution was heated to 37° C., and a 100-μL portion was transferred to a preparation container. The apo-b siRNA aqueous solution (100 μL) was then added thereto while being stirred. Then, a 20 mM citric acid buffer (containing 300 mM NaCl, pH 6.0; 200 μL) was added to the lipid nucleic acid mixed suspension (200 μL) while being stirred. The siRNA concentration was brought to 10 μM by dropping a Dulbecco phosphate buffer (DPBS, Invitrogen; 662 μL), and preparations (compositions comprising compounds 1 to 117 and the nucleic acid) were obtained.
The average particle diameter of the complex between the cationic lipis and the nucleic acid in each preparation was measured with a particle diameter measurement device (Malvern; Zetasizer Nano ZS).

| Structure (SMILES) | Particle diameter of Preparetion [nm] | average particle diameter of the complex between the cationic lipis and the nucleic acid in the preparation [nm] |
| --- | --- | --- |
| CCCCCCCCCCC/C=C\CCCCCO[C@@H]1CNC[C@H]1OCCCCC/C=C\CCCCCCCCCCC [Compound 7, (3R,4R)-3,4-bis((Z)-Octadec-6-enyloxy)pyrrolidine] | 148.7 |  |
| CCCCC/C=C\C/C=C\CCCCCCCC(=O)OCCN(CCOC(=O)CCCCCCC/C=C\C/C=C\CCCCC)C(=O)CN [Compound 96, 2-Amino-N,N-bis(2-((9Z,12Z)-octadec-9,12-dienoyloxy)ethyl)acetamide] | 133.2 |  |
| CCCCC/C=C\C/C=C\CCCCCCCC(=O)O[C@@H]1CN(C(=O)CN)C[C@H]1OC(=O)CCCCCCC/C=C\C/C=C\CCCCC [Compound 65, (3R,4R)-1-(2-aminoacetyl)pyrrolidine-3,4-diyl di((9Z,12Z)-octadec-9,12-enoate)] | 128.9 |  |
| CCCCCCCC/C=C\CCCCCCCCOC[C@@H]1CNC[C@H]1COCCCCCCCC/C=C\CCCCCCCC (relative stereo) [Compound 101, trans-3,4-bis(((Z)-Octadec-9-enyloxy)methyl)pyrrolidine] | 148.7 |  |
| CCCCCCCC/C=C\CCCCCCCC(=O)OC[C@@H]1C[N+](C)(C)C[C@H]1COC(=O)CCCCCCC/C=C\CCCCCCCC.[Cl-] (relative stereo) [Compound 113, trans-1,1-Dimethyl-3,4-bis(((Z)-octadec-9-enoyloxy)methyl)pyrrolidinium chloride] | 103.5 |  |
| CCCCC/C=C\C/C=C\CCCCCCCC(=O)O[C@@H]1CN(C(=O)CN(C)C)C[C@H]1OC(=O)CCCCCCC/C=C\C/C=C\CCCCC [Compound 26, (3R,4R)-1-(2-(Dimethylamino)acetyl)pyrrolidine-3,4-diyl di((9Z,12Z)-octadec-9,12-dienoate)] | 133.9 |  |
| CCCCC/C=C\C/C=C\CCCCCCCCOC[C@@H]1CNC[C@H]1COCCCCCCCC/C=C\C/C=C\CCCCC (relative stereo) [Compound 102, trans-3,4-bis(((9Z,12Z)-Octadec-9,12-dienyloxy)methyl)pyrrolidine] | 133.0 |  |
| CCCCCCCCCCCCCCCCO[C@@H]1CN(C)C[C@H]1OCCCCCCCCCCCCCCCC [Compound 45, (3R,4R)-3,4-bis(Hexadecyloxy)-1-methylpyrrolidine] | 136.3 |  |
| CCCCC/C=C\C/C=C\CCCCCCCC(=O)OCCN(C)CCOC(=O)CCCCCCC/C=C\C/C=C\CCCCC [Compound A-5, N-Methyl-N,N-bis(2-((9Z,12Z)-1-oxooctadec-9,12-dienyloxy)ethyl)amine, reference compound] |  | 136.4 |
| CCCCCCCCCCCCCCCCOCCNCCOCCCCCCCCCCCCCCCC [Compound 70, bis(2-(Hexadecyloxy)ethyl)amine] | 145.6 |  |
| CCCCC/C=C\C/C=C\CCCCCCCCO[C@H]1CNC[C@H]1OCCCCCCCC/C=C\C/C=C\CCCCC [Compound 3, (3R,4S)-3,4-bis((9Z,12Z)-Octadec-9,12-dienyloxy)pyrrolidine] | 152.8 |  |
| CCCC/C=C\CCCCCCCCO[C@@H]1CN(C)C[C@H]1OCCCCCCCC/C=C\CCCC [Compound 47, (3R,4R)-1-Methyl-3,4-bis((Z)-tetradec-9-enyloxy)pyrrolidine] | 125.8 |  |
| CCCCC/C=C\C/C=C\CCCCCCCCO[C@@H]1CN(C(=O)CN)C[C@H]1OCCCCCCCC/C=C\C/C=C\CCCCC [Compound 61, (3R,4R)-1-(2-Aminoacetyl)-3,4-bis((9Z,12Z)-octadec-9,12-dienyloxy)pyrrolidine] | 125.9 |  |
| CCCCC/C=C\C/C=C\CCCCCCCCCCO[C@@H]1CN(C)C[C@H]1OCCCCCCCCCC/C=C\C/C=C\CCCCC [Compound 16, (3R,4R)-3,4-bis((11Z,14Z)-Icos-11,14-dienyloxy)-1-methylpyrrolidine] | 143.2 |  |
| CCCCCC/C=C\CCCCCCCCCCO[C@@H]1CNC[C@H]1OCCCCCCCCCC/C=C\CCCCCC [Compound 41, (3R,4R)-3,4-bis((Z)-Octadec-11-enyloxy)pyrrolidine] | 134.4 |  |
| CCCCC/C=C\C/C=C\CCCCCCCCO[C@H]1C[N+](C)(C)C[C@H]1OCCCCCCCC/C=C\C/C=C\CCCCC.[Cl-] [Compound 21, (3R,4,5)-1,1-Dimethyl-3,4-bis((9Z,12Z)-octadec-9,12-dienyloxy)pyrrolidinium chloride] | 112.4 |  |
| CCCCC/C=C\C/C=C\CCCCCCCC(=O)O[C@@H]1CN(C(=O)CCN(C)C)C[C@H]1OC(=O)CCCCCCC/C=C\C/C=C\CCCCC [Compound 29, (3R,4R)-1-(3-(dimethylamino)propanoyl)pyrrolidine-3,4-diyl di((9Z,12Z)-octadec-9,12-dienoate)] | 122.5 |  |
| CCCCC/C=C\C/C=C\CCCCCCCC(=O)OCCN(CCOC(=O)CCCCCCC/C=C\C/C=C\CCCCC)C(=O)[C@@H](N)CCCCN [Compound 100, (S)-2,6-Diamino-N,N-bis(2-((9Z,12Z)-octadec-9,12-dienoyloxy)ethyl)hexanamido] | 135.1 |  |
| CCCCC/C=C\C/C=C\CCCCCCCCO[C@H]1CN(C)C[C@H]1OCCCCCCCC/C=C\C/C=C\CCCCC [Compound 11, (3R,4S)-1-Methyl-3,4-bis((9Z,12Z)-octadec-9,12-dienyloxy)pyrrolidine] | 135.8 |  |
| CCCCCC/C=C\CCCCCCCCOCCN(C)CCOCCCCCCCC/C=C\CCCCCC [Compound 35, N-Methyl-N,N-bis(2-((Z)-hexadec-9-enyloxy)ethyl)amine] | 126.5 |  |
| CCCCC/C=C\C/C=C\CCCCCCCC(=O)OCCNCCOC(=O)CCCCCCC/C=C\C/C=C\CCCCC [Compound 74, N,N-bis(2-((9Z,12Z)-Octadec-9,12-dienoyloxy)ethyl)amine] | 128.4 |  |
| CCCCCCCC/C=C\CCCCCCCC(=O)O[C@@H]1C[N+](C)(C)C[C@H]1OC(=O)CCCCCCC/C=C\CCCCCCCC.[Cl-] [Compound 23, (3R,4R)-1,1-Dimethyl-3,4-bis((Z)-octadec-9-enoyloxy)pyrrolidinium chloride] | 108.7 |  |
| CCCCC/C=C\C/C=C\CCCCCCCCO[C@@H]1CNC[C@H]1OCCCCCCCC/C=C\C/C=C\CCCCC [Compound 1, (3R,4R)-3,4-bis((9Z,12Z)-Octadec-9,12-dienyloxy)pyrrolidine] | 137.4 |  |
| CCCCC/C=C\C/C=C\CCCCCCCCO[C@@H]1CN(C(=O)[C@@H](N)CCCN)C[C@H]1OCCCCCCCC/C=C\C/C=C\CCCCC [Compound 63, (3R,4R)-1-((S)-2,5-Diaminopentanoyl)-3,4-bis((9Z,12Z)-octadec-9,12-dienyloxy)pyrrolidine] | 143.0 |  |
| CCCCC/C=C\C/C=C\CCCCCCCC(=O)O[C@@H]1CN(CC(O)CO)C[C@H]1OC(=O)CCCCCCC/C=C\C/C=C\CCCCC (stereo partly drawn) [Compound 53, (3R,4R)-1-(2,3-dihydroxypropyl)pyrrolidine-3,4-diyl di((9Z,12Z)-octadec-9,12-enoate)] | 152.4 |  |
| CCCCCCCC/C=C\CCCCCCCCOCCN(CCOCCCCCCCC/C=C\CCCCCCCC)CCC(N)=O [Compound 84, 3-(bis(2-((2)-Octadec-9-enyloxy)ethyl)amino)propanamide] | 120.2 |  |
| CCCCCC/C=C\CCCCCCCCO[C@@H]1CNC[C@H]1OCCCCCCCC/C=C\CCCCCC [Compound 6, (3R,4R)-3,4-bis((Z)-Hexadec-9-enyloxy)pyrrolidine] | 140.3 |  |
| CCCCCCCC/C=C\CCCCCCCC(=O)O[C@@H]1CN(C)C[C@H]1OC(=O)CCCCCCC/C=C\CCCCCCCC [Compound A-4, (3R,4R)-1-Methylpyrrolidine-3,4-diyl di((Z)-octadec-9-enoate), reference compound] |  | 131.1 |
| CCCCC/C=C\C/C=C\CCCCCCCCO[C@H]1C[N+](C)(C)C[C@@H]1OCCCCCCCC/C=C\C/C=C\CCCCC [Compound 52, (3S,4S)-1,1-Dimethyl-3,4-bis((9Z,12Z)-octadec-9,12-dienyloxy)pyrrolidinium chloride] | 118.9 |  |
| CCCCCCCC/C=C\CCCCCCCC(=O)OCCN(CCOC(=O)CCCCCCC/C=C\CCCCCCCC)C(=O)CCN(C)C [Compound 99, 3-(Dimethylamino)-N,N-bis(2-((Z)-octadec-9-enoyloxy)ethyl)propanamido] | 129.6 |  |
